Measured values taken from BindingDB's records for doi:10.1080/14756360310001613094 (Xiamen University, 2003).

Biological target: T1, Polyphenol oxidase 2 (Agaricus bisporus, UniProt O42713)
T1 sequence (O42713 whole entry): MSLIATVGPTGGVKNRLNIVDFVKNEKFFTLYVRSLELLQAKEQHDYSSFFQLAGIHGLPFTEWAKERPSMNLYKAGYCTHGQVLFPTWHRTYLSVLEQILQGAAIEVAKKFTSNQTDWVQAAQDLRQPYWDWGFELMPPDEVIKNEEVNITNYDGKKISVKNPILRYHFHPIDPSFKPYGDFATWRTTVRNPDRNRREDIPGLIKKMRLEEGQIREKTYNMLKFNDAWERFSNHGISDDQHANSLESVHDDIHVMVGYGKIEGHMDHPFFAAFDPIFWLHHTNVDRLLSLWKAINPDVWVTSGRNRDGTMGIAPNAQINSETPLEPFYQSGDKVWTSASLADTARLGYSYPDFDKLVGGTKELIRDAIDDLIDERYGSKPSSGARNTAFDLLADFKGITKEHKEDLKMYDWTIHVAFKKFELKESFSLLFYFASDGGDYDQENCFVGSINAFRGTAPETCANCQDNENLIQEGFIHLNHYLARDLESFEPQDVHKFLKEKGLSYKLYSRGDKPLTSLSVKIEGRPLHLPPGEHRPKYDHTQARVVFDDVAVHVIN
Assay: Inhibition Assay
Description: Inhibition of alklbenzaldehydes on tyrosinase enzyme.

Structure (SMILES) | IC50 [µM] | Ki [µM]
Cc1ccc(C=O)cc1 [4-Methylbenzaldehyde] | 120 | –
Cc1cccc(C=O)c1 [m-Tolualdehyde, b] | 450 | 290
Cc1ccccc1C=O [o-Tolualdehyde, a] | 2600 | 1850
CCc1ccc(C=O)cc1 [p-Ethylbenzaldehyde, d] | 95 | –
CCCCCCCc1ccc(C=O)cc1 [p-Heptylbenzaldehyde, k] | 8.8 | –
CCCCCCc1ccc(C=O)cc1 [p-Hexylbenzaldehyde, j] | 8 | –
CC(C)c1ccc(C=O)cc1 [p-Isopropylbenzaldehyde, f] | 75 | –
CCCCCCCCc1ccc(C=O)cc1 [p-Octylbenzaldehyde, l] | 10 | –
CCCCCc1ccc(C=O)cc1 [p-Pentylbenzaldehyde, i] | 13.5 | –
CCCc1ccc(C=O)cc1 [p-Propyl-benzaldehyde, e] | 75 | –
CC(C)(C)c1ccc(C=O)cc1 [p-Tert-butylbenzaldehyde, g] | 38 | –
CCCCc1ccc(C=O)cc1 [p-butyl-benzaldehyde, h] | 38 | –
